Format in all cases: cell-based
The test system of test [1] is KLK3 mRNA. The test is described as follows: Expression of AR target genes (qRT-PCR) in 22Rv1: KLK3. Conditions: 22Rv1, 1 μM, 48h; relative to vehicle control (DMSO). How it is done: (§1) The prostate cancer cell line 22Rv1 was treated for 48h with 1 μM Example compound 1, 1/1, 2/1, 2/2, 2/3, 2/4, 2/5, 2/6, 2/7, 2/8, 2/9 and 2/10 and reference compounds SR2211 and XY018. RNA was extracted using the RNA isolation kit XS (Macherey-Nagel) and following the manufacture's manual. RNA quantity was measured with the Nanodrop before reverse transcription using Superscript II (Invitrogen #100004925). For the quantitative real-time PCR with SYBR-Green (Qiagen #204074), the following primers were used:
(§2) qRT-PCR was performed using SYBR-Green (Qiagen #204074) reagents in a PCR cycler (Gorbett Research) Rotor Gene RG3000 with the following program: denaturation for 5′ at 95° C.; 40 cycles of 20″ at 95° C. and 15″ at 60° C.″ and at the end of the last cycle, the melting temperature of the products was determined by gradually increasing from 60° C. to 99° C. CT values from all samples were normalized to reference (housekeeping) genes using the mean CT value of the GAPDH and YWHAZ (reference genes). Next the values are put relative to the untreated control (vehicle/DMSO).
On the technique in general: Quantitative PCR measures a nucleic acid by following its amplification.

Test [2] relates to NKX3.1 mRNA. The test is described as follows: Expression of AR target genes (qRT-PCR) in 22Rv1: NKX3.1. The conditions noted are these: Homo sapiens; 22Rv1, 1 μM, 48h; relative to vehicle control (DMSO). How it is done: as §1, §2
Test [3] relates to FKBP5 mRNA. In words: Expression of AR target genes (qRT-PCR) in 22Rv1: FKBP5. The conditions noted are these: Homo sapiens; 22Rv1, 1 μM, 48h; relative to vehicle control (DMSO). How it is done: as §1, §2
Test [4] has as its system CCRFCEM (ALL). The test is described as follows: Oncotest inhibition of viability, CCRFCEM. The conditions noted are these: Homo sapiens, CCRF-CEM; ALL cell line CCRFCEM; read-out: IC50 range.
In test [5] the test system is CCRFCEM/VCR (ALL). The test is described as follows: Oncotest inhibition of viability, CCRFCEM/VCR. Conditions: Homo sapiens, CCRF-CEM; ALL cell line CCRFCEM/VCR; read-out: IC50 range.
Test [6] concerns MOLT4 (ALL). The test is described as follows: Oncotest inhibition of viability, MOLT4. Conditions: Homo sapiens, MOLT-4; ALL cell line MOLT4; read-out: IC50 range.
Test [7] relates to JURKAT (ALL). In words: Oncotest inhibition of viability, JURKAT. Conditions: Homo sapiens; ALL cell line JURKAT; read-out: IC50 range.
The test system of test [8] is HL60 (AML). In words: Oncotest inhibition of viability, HL60. The conditions noted are these: Homo sapiens, HL-60; AML cell line HL60; read-out: IC50 range.
Test [9] has as its system KG1 (AML). The test is described as follows: Oncotest inhibition of viability, KG1. Conditions: AML cell line KG1; read-out: IC50 range.
Test [10] concerns NOMO1 (AML). In words: Oncotest inhibition of viability, NOMO1. Conditions: Homo sapiens, NOMO-1; AML cell line NOMO1; read-out: IC50 range.
In test [11] the test system is PL21 (AML). The test is described as follows: Oncotest inhibition of viability, PL21. The conditions noted are these: PL-21; AML cell line PL21; read-out: IC50 range.
Test [12] has as its system EM2 (CML). The test is described as follows: Oncotest inhibition of viability, EM2. Conditions: CML cell line EM2; read-out: IC50 range.
For test [13], the system named is K562 (CML). In words: Oncotest inhibition of viability, K562. The conditions noted are these: Homo sapiens; CML cell line K562; read-out: IC50 range.
In test [14] the test system is KCL22 (CML). The test is described as follows: Oncotest inhibition of viability, KCL22. Conditions: Homo sapiens, KCL-22; CML cell line KCL22; read-out: IC50 range.
In test [15] the test system is MEG01 (CML). In words: Oncotest inhibition of viability, MEG01. Conditions: Homo sapiens, MEG-01; CML cell line MEG01; read-out: IC50 range.
The test system of test [16] is RAJI (NHL). In words: Oncotest inhibition of viability, RAJI. Conditions: Homo sapiens; NHL cell line RAJI; read-out: IC50 range.
The test system of test [17] is HUT78 (NHL). The test is described as follows: Oncotest inhibition of viability, HUT78. The conditions noted are these: Homo sapiens; NHL cell line HUT78; read-out: IC50 range.
Test [18] relates to MYLA (NHL). In words: Oncotest inhibition of viability, MYLA. Conditions: NHL cell line MYLA; read-out: IC50 range.
For test [19], the system named is U937 (NHL). In words: Oncotest inhibition of viability, U937. The conditions noted are these: Homo sapiens, U-937; NHL cell line U937; read-out: IC50 range.
For test [20], the system named is RPMI8226 (MM). In words: Oncotest inhibition of viability, RPMI8226. Conditions: Homo sapiens, RPMI-8226; MM cell line RPMI8226; read-out: IC50 range.
Test [21] has as its system L363 (MM). In words: Oncotest inhibition of viability, L363. The conditions noted are these: Homo sapiens, L-363; MM cell line L363; read-out: IC50 range.
The test system of test [22] is IM9 (MM). The test is described as follows: Oncotest inhibition of viability, IM9. The conditions noted are these: MM cell line IM9; read-out: IC50 range.
The test system of test [23] is LP1 (MM). In words: Oncotest inhibition of viability, LP1. Conditions: MM cell line LP1; read-out: IC50 range.
Test [24] has as its system NCIH929 (MM). In words: Oncotest inhibition of viability, NCIH929. Conditions: Homo sapiens, NCI-H929; MM cell line NCIH929; read-out: IC50 range.
The test system of test [25] is 24 different hematological cell lines. In words: Inhibition of viability in 24 different hematological cell lines (mean). Conditions: mean over 24 different hematological cell lines; read-out: geometrical mean IC50, inhibition of viability.
Test [26] concerns AML cell line HL-60. The test is described as follows: CellTiter-Blue proliferation assay, HL-60. Conditions: Homo sapiens, geometric mean relative IC50, 72 hours, read-out: IC50 range for cell line HL-60. The protocol:
Aim of this study was to evaluate compounds of Example 1, 1/1, 2/2, 2/5 and 2/6 in a proliferation assays. The 5 test compounds were tested in a CellTiter-Blue® based proliferation assay in three AML cell lines (HL-60, THP-1 and MOLM-13). The compounds were tested at 10 concentrations in half-log increments (highest concentration 30 μM or 100 μM) in duplicates. The incubation period with the applied compounds was fixed to 72 hours.

Experimental findings from patent publication US20240368145A1, “METHODS FOR TREATING CANCER” (IMMUNIC AG, priority 2021, published 2024) are described below.

For `CC(C)(O)CCn1ncc(-c2onc(-c3c(F)cccc3Cl)c2-c2ncccn2)c1C(F)(F)F` [2/8], in [1], the “KLK3 mRNA expression” value was 1.152. The mrna remaining at 1 µM came out at 29.3% in test [2] and 38.1% in test [3].

Consider `COC(=O)c1c(-c2c(F)cccc2Cl)noc1-c1cnn(-c2cccc(Cl)c2)c1C(F)(F)F` [Example 1, Methyl 3-(2-chloro-6-fluorophenyl)-5-(1-(3-chlorophenyl)-5-(trifluoromethyl)-1H-pyrazol-4-yl)isoxazole-4-carboxylate], for which the IC50 (as a rule, the point on the concentration scale where inhibition reaches its midpoint) in test [4] was 0.01 to 0.1 µM; in test [5], 0.01 to 0.1 µM; in [6], under 0.01 µM; in [7], under 0.01 µM; in [8] it was under 0.01 µM; in test [9] it was under 0.01 µM. For the same compound, the IC50 in [10] is 0.1 to 1 µM; in test [11] it was 0.1 to 1 µM; in test [12] it was 0.01 to 0.1 µM; in [13], at least 1 µM; in test [14], 0.01 to 0.1 µM; in test [15] it was at least 1 µM. Also, the half-maximal inhibitory concentration (IC50) in test [16] is under 0.01 µM; in test [17], under 0.01 µM; in test [18] it was 0.1 to 1 µM; in test [19], 0.01 to 0.1 µM; in test [20], under 0.01 µM; in test [21] it was under 0.01 µM. Further, the IC50 in test [22] was under 0.01 µM; in test [23], 0.01 to 0.1 µM; in [24], under 0.01 µM; in [25], under 0.025 µM; in test [26] it was under 0.01 µM.

In the case of `Fc1cccc(Cl)c1-c1noc(-c2cnn(-c3cccc(Cl)c3)c2C(F)(F)F)c1-c1nccs1` [Example 1/1], the IC50 in [26] was under 0.01 µM.
